Results: PMC3025038 (Organic & biomolecular chemistry, 2009)

Experiments:
[1] = mice; liver, spleen, kidney bone marrow, or brain tissue; cited from earlier work
KOP receptors [2] = target: T1, KOP receptors (Homo sapiens, UniProt P41145); test: biochemical; type: biochemical; conditions: for Emax: read-out: KOP Emax
KOP receptors [3] = target: T1, KOP receptors; type: binding

T1 sequence (P41145 whole entry): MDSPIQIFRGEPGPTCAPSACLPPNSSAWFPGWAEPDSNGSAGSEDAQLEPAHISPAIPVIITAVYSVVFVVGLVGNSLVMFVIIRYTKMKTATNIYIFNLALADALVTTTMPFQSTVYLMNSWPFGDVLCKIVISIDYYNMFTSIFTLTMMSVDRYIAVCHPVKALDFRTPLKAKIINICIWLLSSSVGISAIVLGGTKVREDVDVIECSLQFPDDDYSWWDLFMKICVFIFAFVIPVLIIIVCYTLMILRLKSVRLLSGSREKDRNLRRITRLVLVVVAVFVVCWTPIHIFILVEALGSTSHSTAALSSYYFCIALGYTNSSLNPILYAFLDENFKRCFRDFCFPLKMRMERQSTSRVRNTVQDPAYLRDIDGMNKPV

Row | Structure (SMILES) | histological differences versus control animals [1] | fold less active than 1 as agonists (KOP receptors [2]) | functional character at KOPs (in words) (KOP receptors [2]) | Emax (KOP receptors [2]) [%] | fold increase in affinity for KOP receptors (KOP receptors [3]) [fold]
1 | COC(=O)[C@@H]1C[C@H](OC(C)=O)C(=O)[C@H]2[C@@]1(C)CC[C@H]1C(=O)O[C@H](c3ccoc3)C[C@]21C [Compound 1, salvinorin A] | no histological differences |  |  |  | 
2 | COC(=O)[C@@H]1C[C@H](OC(C)=O)C(=O)[C@H]2[C@@]1(C)CC[C@H]1C(=O)O[C@H](C(=O)N3CCSCC3)C[C@]21C [Compound 23, (2S,4aR,6aR,7R,9S,10aS,10bR)-methyl 9-acetoxy-6a,10b-dimethyl-4,10-dioxo-2-(thiomorpholine-4-carbonyl)dodecahydro-1H-benzo[f]isochromene-7-carboxylate] |  | approximately 100 fold | selective partial agonists | 57 ± 6 | 
3 | COC(=O)[C@@H]1C[C@H](OC(C)=O)C(=O)[C@H]2[C@@]1(C)CC[C@H]1C(=O)O[C@H](C(=O)N3CCCCC3)C[C@]21C [Compound 21, (2S,4aR,6aR,7R,9S,10aS,10bR)-methyl 9-acetoxy-6a,10b-dimethyl-4,10-dioxo-2-(piperidine-1-carbonyl)dodecahydro-1H-benzo[f]isochromene-7-carboxylate] |  | approximately 100 fold | selective partial agonists | 85 ± 13 | 9
